Measured values published in ChEMBL document CHEMBL2203104, “Recent advances in antitubercular natural products” (Eur J Med Chem, 2012).
In brackets after ≈: the same amount, converted by molar mass.

How the values were obtained:
[1] = Selectivity index, ratio of IC50 for african green monkey Vero cells to MIC for Mycobacterium tuberculosis H37Ra; type: functional
Vero = experiment: Cytotoxicity against african green monkey Vero cells; type: cell-based; conditions: Chlorocebus sabaeus
[2] = test system: Mycobacterium tuberculosis; experiment: Antimycobacterial activity against Mycobacterium tuberculosis H37Ra; type: functional
[3] = test system: Mycobacterium tuberculosis; experiment: Antimycobacterial activity against Mycobacterium tuberculosis H37Rv; type: functional; conditions: Mycobacterium tuberculosis, H37Rv; read-out: MIC
[4] = test system: Mycobacterium tuberculosis; experiment: Antimycobacterial activity against Mycobacterium tuberculosis Erdman by microplate alamar blue assay; type: functional
[5] = test system: Mycobacterium tuberculosis; experiment: Antimycobacterial activity against Mycobacterium tuberculosis H242; type: functional
[6] = Selectivity index, ratio of IC50 for african green monkey Vero cells to MIC for Mycobacterium tuberculosis H37Rv; type: functional
[7] = test system: Mycobacterium tuberculosis; experiment: Antimycobacterial activity against Mycobacterium tuberculosis 90-221387; type: functional
[8] = test system: Mycobacterium tuberculosis; experiment: Antimycobacterial activity against Mycobacterium tuberculosis at 128 ug/mL; type: functional; conditions: read-out: GI
[9] = test system: Mycobacterium tuberculosis; experiment: Antimycobacterial activity against Mycobacterium tuberculosis H37Rv by liquid microdilution method; type: functional
[10] = Inhibition of Mycobacterium tuberculosis RNA polymerase
[11] = test system: Mycobacterium tuberculosis; experiment: Growth inhibition of Mycobacterium tuberculosis H37Rv at 6.25 ug/ml; type: functional; conditions: read-out: GI
[12] = test system: Mycobacterium tuberculosis; experiment: Antimycobacterial activity against Mycobacterium tuberculosis H37Rv under aerobic condition; type: functional
[13] = test system: Mycobacterium tuberculosis; experiment: Antimycobacterial activity against Mycobacterium tuberculosis H37Rv under anaerobic condition; type: functional
[14] = test system: Mycobacterium tuberculosis; experiment: Antimycobacterial activity against Mycobacterium tuberculosis isolate no. 246; type: functional
[15] = target: T1, 3-oxoacyl-[acyl-carrier-protein] synthase 1 (Mycobacterium tuberculosis, UniProt P9WQD9); experiment: Inhibition of Mycobacterium tuberculosis H37Rv Fab1
T1 sequence (P9WQD9 whole entry): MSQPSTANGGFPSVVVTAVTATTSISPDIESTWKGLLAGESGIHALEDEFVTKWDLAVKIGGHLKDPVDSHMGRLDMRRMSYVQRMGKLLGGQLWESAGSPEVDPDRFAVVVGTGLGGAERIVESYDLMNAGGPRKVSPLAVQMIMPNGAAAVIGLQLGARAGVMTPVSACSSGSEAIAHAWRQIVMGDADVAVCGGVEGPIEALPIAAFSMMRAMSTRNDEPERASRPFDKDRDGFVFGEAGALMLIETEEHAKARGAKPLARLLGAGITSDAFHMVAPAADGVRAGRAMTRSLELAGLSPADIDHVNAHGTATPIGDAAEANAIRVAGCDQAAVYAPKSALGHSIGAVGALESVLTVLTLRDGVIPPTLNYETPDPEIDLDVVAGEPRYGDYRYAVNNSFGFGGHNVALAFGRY

[16] = Selectivity index, ratio of CC50 for lymphocytes to MIC for Mycobacterium tuberculosis H37Rv isolate WC 51/02; type: functional
[17] = test system: Mycobacterium tuberculosis; experiment: Antimycobacterial activity against Mycobacterium tuberculosis H37Rv isolate WC 51/02; type: functional
[18] = test system: Mycobacterium tuberculosis; experiment: Antimycobacterial activity against Mycobacterium tuberculosis H37Rv isolate WC 64/02; type: functional
[19] = Selectivity index, ratio of CC50 for lymphocytes to MIC for Mycobacterium tuberculosis H37Rv isolate WC 64/02; type: functional

Compound: COC1=CC(=O)c2c(cc(OC)c(C(C)OC(C)=O)c2O)C1=O (centres undefined)
- Selectivity Index [1]: <1
- IC50 (Vero): 0.33 µg/mL
- MIC [2]: 0.39 µg/mL

Compound: C=CC(O)C#CC#CC(O)/C=C\CCCCCCCCOC(C)=O (centres undefined)
- MIC [3]: 25.3 µg/mL
- MIC [4]: 1.4 µg/mL (≈ 4.21 µM)

Compound: CCCCCCCC/C=C\CCCCCCCCCCCCCCCC[C@@H](O)C(=O)N[C@@H](CO[C@@H]1O[C@H](CO)[C@H](O)[C@H](O)[C@H]1O)[C@H](O)[C@H](O)CCC/C=C\CCCCCCCCC
- MIC [3]: 40 µg/mL
- MIC [5]: 40 µg/mL (≈ 44.5 µM)

Compound: COc1ccc(C(=O)OC2=C(C(C)C)C(=O)C3=C(C2=O)[C@@]2(C)CCCC(C)(C)[C@@H]2[C@H](O)[C@H]3OC(C)=O)cc1
- IC50 (Vero): 2.58 µg/mL
- MIC [3]: 3.12 µg/mL

Compound: O=C1c2cccnc2-c2nccc3c2c1nc1ccccc13 [ASCIDIDEMIN]
- IC50 (Vero): 0.14 µM
- MIC [3]: 0.35 µM
- Selectivity Index [6]: <1

Compound: COc1cc([C@H]2O[C@@H](c3cc(OC)c4c(c3)OCO4)[C@@H](C)[C@@H]2C)cc(OC)c1OC [BEILSCHMIN A]
- MIC [7]: 2.5 µg/mL (≈ 6 µM)

Compound: COc1cc([C@H]2O[C@@H](c3cc(OC)c(OC)c(OC)c3)[C@@H](C)[C@@H]2C)cc(OC)c1OC [BEILSCHMIN B]
- MIC [7]: 7.5 µg/mL (≈ 17.3 µM)

Compound: COc1cc([C@H]2O[C@@]3(c4cc(OC)c5c(c4)OCO5)O[C@@]3(C)[C@@H]2C)cc2c1OCO2 [BEILSCHMIN D]
- MIC [7]: 50 µg/mL (≈ 121 µM)

Compound: C=C(C)[C@H]1CC[C@@H]2C(=O)O[C@H]3[C@@H]2O[C@@]2(O[C@@H]1C(=O)[C@@]1(C)O[C@@H]21)[C@@H]3C(=C)C [BIPINNAPTEROLIDE B]
- inhibition of growth at 128 µg/mL [8]: 66%

Compound: CC[C@H](C)[C@@H](NC(=O)[C@@H](CCC(=O)O)NC(=O)[C@H](Cc1cnc[nH]1)NC(=O)[C@H](CC(C)C)NC(=O)[C@H](N)Cc1ccccc1)C(=O)N[C@H]1CCCCNC1=O [CALPINACTAM]
- MIC [9]: 12.5 µg/mL (≈ 16.3 µM)

Compound: C=C(C)[C@@H]1CCC2=C[C@@H](OC2=O)C2=C(C)C[C@](O)(C2=O)[C@H](C)[C@@H](O)C1=O [CORALLOLIDE B]
- inhibition of growth at 128 µg/mL [8]: 95%

Compound: C/C=C/C/C=C(\C)C(O)CC/C(C)=C/C=C(\C)C(=O)c1c(O)cc([C@H](C)CC/C=C/NC(=O)OC)oc1=O (some centres undefined) [CORALLOPYRONIN A]
- IC50 [10]: 4 µM

Compound: C[C@@H]1CC[C@@H]2[C@@H](C)C[C@@H](C(=O)/C=C\O)[C@]2(O)C1=O [ELISABETHIN H]
- inhibition of growth at 6.25 µg/mL [11]: 51%

Compound: CC(C)[C@@H](C)/C=C/[C@@H](C)[C@H]1CC[C@@H]2[C@]1(C)CC[C@H]1[C@]23C=C[C@]2(C[C@@H](O)CC[C@]12C)OO3 [ERGOSTEROL PEROXIDE]
- MIC [3]: 3.5 µM
- Selectivity Index [6]: >57

Compound: CC[C@@H](CO)NCCN[C@@H](CC)CO [ETHAMBUTOL]
- MIC [7]: 6.2 µg/mL (≈ 30.3 µM)

Compound: CCCC/C=C/C#CC#CCCCCCCCC(=O)O [EXOCARPIC ACID]
- MIC [12]: 20 µg/mL (≈ 72.9 µM)
- MIC [13]: 87 µg/mL (≈ 317 µM)
- MIC [2]: 20 µg/mL

Compound: C=C[C@@]1(C)[C@H](Cl)C[C@@H]2C(C)(C)c3cccc4[nH]c5c(c34)[C@@]2(O)[C@]1(C#N)[C@@]1(CO1)C5(C)C [FISCHAMBIGUINE B]
- IC50 (Vero): 128 µM
- MIC [3]: 2 µM
- Selectivity Index [6]: 64

Compound: CCCCCC(CC(=O)N1N=CCCC1C(=O)N[C@H]1COC(=O)[C@H]2CCCNN2C(=O)[C@H](C)NC(=O)[C@@H](CC(C)C)NC1=O)C(=O)O (some centres undefined) [LYDIAMYCIN A]
- MIC [3]: 12.5 µg/mL
- MIC [14]: 25 µg/mL (≈ 37.7 µM)

Compound: CCC/C(C)=C/C=C(\C)C(=O)c1c(O)cc([C@H](C)CC/C=C/NC(=O)OC)oc1=O [MYXOPORIN A]
- IC50 [10]: 1 µM

Compound: C=C(CC[C@@H](C)[C@H]1CC[C@H]2[C@@H]3C(C=O)=C4C[C@@H](O)CC[C@]4(C)[C@H]3CC[C@]12C)C(C)C [PARGUESTEROL A]
- IC50 (Vero): 52 µg/mL
- MIC [3]: 7.8 µg/mL
- Selectivity Index [6]: <7

Compound: C=C(CC[C@@H](C)[C@H]1CC[C@H]2[C@@H]3C(C=O)[C@]4(O)C[C@@H](O)CC[C@]4(C)[C@H]3CC[C@]12C)C(C)C (some centres undefined) [PARGUESTEROL B]
- IC50 (Vero): 52 µg/mL
- MIC [3]: 11.2 µg/mL
- Selectivity Index [6]: <7

Compound: CCCCCCCc1cc(O)c(CCCCCC)c(=O)o1 [PSEUDOPYRONINES B]
- IC50 [15]: 3.8 µM
- MIC [3]: 0.78 µg/mL

Compound: Cc1cc(O)c2c(c1)C(=O)C=CC2=O [RAMENTACEONE]
- Selectivity Index [16]: <8
- MIC [17]: 0.5 µg/mL (≈ 2.66 µM)
- MIC [18]: 0.5 µg/mL (≈ 2.66 µM)
- Selectivity Index [19]: <8

Compound: Cc1cc(O)cc2c1C[C@@H]1C[C@@H](O)[C@]3(C)Oc4cc(O)cc(C)c4C[C@@H]3CC(C)(C)/C=C/C[C@@]1(C)C2 [RAMIFERIN]
- Selectivity Index [1]: 0.7
- IC50 (Vero): 9.7 µM
- MIC [2]: 12.7 µM

Compound: C/C(=C\Cc1ccccc1)CC[C@@]1(O)C[C@H]2C[C@@H](C/C(C)=C/C/C=C/C/C(CC(=O)O)=C\C(=O)O2)O1 [RIPOSTATIN A]
- IC50 [10]: 0.8 µM

Compound: CC(C)=CCC/C(C)=C/CC/C(C)=C/CC/C=C(\C)CC/C=C(\C)CCC=C(C)C [SQUALENE]
- MIC [7]: 28 µg/mL (≈ 68.2 µM)
